Here are results for 1 molecule from patent publication US20120202840A1, “Use of Flubendazole and Vinca Alkaloids for Treatment of Hematological Diseases” (priority 2009, published 2012).

The test system of one series is CEM. Briefly: MTS cell growth and viability assay, CEM. It is filed as cell-based. As to conditions: Homo sapiens, CCRF-CEM, 3 replicates. As for the experimental part:
(§1) Leukemia (U937, MDAY, CEM, CEM-VBL) and solid tumor cell lines (PPC-1, HeLa) were cultured in RPMI 1640 medium. The epidermoid carcinoma cell lines KB-3-1 and KB-4.0-HTI^23 were grown in Dulbecco's Modified Eagle Medium. The lung carcinoma cell lines A549 and A549.EpoB40 were grown in RPMI with the latter supplemented with 20% fetal calf serum (FCS), and 40 nM epothilone B.^24 Leukemia cell lines OCI-AML2, CEM, and NB4 and all the myeloma cell lines (OPM2, KMS11, JJN3 LP1, H929, L1, KMS12, KSM18 and OCI My5) were maintained in Iscove's Modified Dulbecco's Medium (IMDM). TEX cells were maintained in IMDM, 15% FCS, 1% penicillin-streptomycin, 2 mM L-glutamine, 20 ng/mL SCF, 2 ng/mL IL-3. Unless otherwise noted, all media were supplemented with 10% FCS, 100 units/mL of streptomycin and 100 μg/mL of penicillin (all from Hyclone, Logan, Utah). Cells were incubated in a humidified air atmosphere containing 5% CO2 at 37° C.
(§2) Cell growth and viability was measured using the 3-(4,5-dimethylthiazol-2-yl)-5-(3-carboxymethoxyphenyl)-2-(4-sulfophenyl)-2H-tetrazolium inner salt (MTS) reduction assay (Promega, Madison, Wis.) according to the manufacture's protocol and as previously described^25. Cells were seeded in 96 well plates and treated with drug for 72 h. Optical density (OD) was measured at 490 nm.

Series [1] concerns bovine tubulin. Briefly: Site of binding to tubulin (colchicine-tubulin fluorescence). The conditions noted are these: tubulin 5.0 μM, 100 μM drug 30 min, then colchicine 10 μM 60 min. As for the experimental part:
(C) Tubulin (5.0 μM) was incubated for 30 min with 100 μM vinblastine, 100 μM flubendazole, or buffer control. […] A representative figure is shown.
The site of flubendazole binding was determined similar to Gupta et al^19. Bovine tubulin (5.0 μM) was incubated with 100 μM flubendazole, 100 μM vinblastine or buffer control for 30 min at 37° C.

Another series concerns HeLa cells. Nature of the series: in vitro. It is filed as cell-based. The conditions noted are these: HeLa, 0.5 or 1.0 μM, 8 hours. The method, then:
(§3) (E) HeLa cells were grown to confluence and a wound created on the cell monolayer using a 200 μL pipette. Cells were treated with increasing concentrations of flubendazole and imaged every 2 h for 8 h. Wound healing was measured as described in the materials and methods. Representative data is shown and are presented as % wound recovery. *p<0.05 (ANOVA, bonferroni post hoc).
(§4) HeLa cell migration was measured as previously described^30. Briefly, HeLa cells were seeded in 4 well chambers and grown to confluence. A wound was inflicted to the monolayer using a 200 μL pipette tip. Wells were washed with media to remove any detached cells and media containing either 0 μM, 0.5 μM or 1.0 μM flubendazole was then added and incubated at 37° C. for 8 hours. Images were captured using a Zeiss Axiovert 200M microscope every 2 hours. These images were quantified using Image J software, which outlined and enumerated the number of pixels in the wound area. Cell migration of HeLa cells was recorded and calculated as a percent recovery of wound area.

A further series in a line: in vitro. It is filed as cell-based. As to conditions: human. The method, then: as §3, §4
The subject of the next series is KB-4.0-HTI. Nature of the series: MTS assay, KB-4.0-HTI (α-tubulin mutant). It is filed as cell-based. As for the experimental part:
Next, whether microtubule inhibition was functionally important for flubendazole's cytotoxicity was determined.
as §1
Cell growth and viability was measured using the 3-(4,5-dimethylthiazol-2-yl)-5-(3-carboxymethoxyphenyl)-2-(4-sulfophenyl)-2H-tetrazolium inner salt (MTS) reduction assay (Promega, Madison, Wis.) according to the manufacture's protocol and as previously described^25. […] Optical density (OD) was measured at 490 nm.

In a further series the test system is OCI-AML2 cells. Briefly: Cell cycle analysis (PI, flow cytometry), OCI-AML2. It is filed as cell-based. As to conditions: OCI-AML2, 1.0 μM, 24 h. The method, then: OCI-AML2 cells (A) or PPC-1 cells (B) were incubated with 1.0 μM flubendazole or buffer control for 24 h. Cells were then stained with PI and the DNA content was measured by flow cytometry. A representative figure is shown.
Cell cycle analysis was performed as described by Mao et al^31. Briefly, OCI-AML2 or PPC-1 cells were harvested, washed with cold PBS and resuspended in PBS and cold absolute ethanol. Cells were then treated with 100 ng/mL of DNase-free RNase A (Invitrogen, Carlsbad, Calif.) at 37° C. for 30 min, washed with cold PBS, resuspended in PBS and incubated with 50 μg/mL of propidium iodine (PI) for 15 min at room temperature in the dark. DNA content was measured by flow cytometry (FACSCalibur, Becton Dickinson, Florida, USA) and analyzed with FlowJo software version 7.0 (TreeStar, Ashland, Oreg.).

In series [2] the test system is bovine tubulin. Briefly: Measurement of tubulin sulfhydryl groups (DTNB). The conditions noted are these: flubendazole 100 μM, vinblastine 10 μM. It is filed as biochemical. The method, then:
A representative figure is shown.
The ability of microtubule target drugs to alter tubulin structure was assessed by measuring the number of reactive cysteine residues using the sulfhydryl reagent 5,5′-Dithio-bis(2-nitrobenzoic acid) (DTNB; Sigma) as previously described^19,29. […] After incubation, DTNB was added (100 μM final concentration) and the absorbance was measured in a 1 cm path length cuvette at 412 nm for 60 min at 37° C. The number of sulfhydryl groups were determined by using a molar extinction coefficient for DTNB of 13 600 (M^−1, cm^−1).^29

The conditions of series [3]: healthy volunteers, 1000 mg single oral dose, three days after administration; cited from earlier work.
Another series relates to CEM-VBL. Briefly: MTS assay, CEM-VBL (Pgp over-expressing). It is filed as cell-based. As for the experimental part: Over-expression of P-glycoprotein (Pgp, MDR1) renders cells resistant to vinca alkaloid microtubule inhibitors.^43 Therefore, the effects of Pgp over-expression on flubendazole's cytotoxicity were tested. CEM-VBL cells over-express Pgp,^44 which was confirmed with a rhodamine dye exclusion assay. CEM wild type and CEM-VBL cells were treated with increasing concentrations of flubendazole or vinblastine and cell viability measured by the MTS assay (Table 1). […] In contrast, CEM-VBL cells over-expressing Pgp were resistant to vinblastine at concentrations greater than 5.0 μM (Table 1).
as §1, §2

In the case of `COC(=O)Nc1nc2ccc(C(=O)c3ccc(F)cc3)cc2[nH]1` [flubendazole], the IC50 came to 1900 ± 900 nM in the series with CEM; 12.5 ± 1.8 µM with KB-4.0-HTI (KB-4.0-HTI, MTS assay, 3 replicates); 2700 ± 1200 nM with CEM-VBL (CEM-VBL, 3 replicates). Also, the “colchicine fluorescence (colchicine binding to tubulin)” value in the series with bovine tubulin [1] is reported as “decreased colchicine fluorescence”. The “cell migration / wound healing” value in the series with HeLa cells was “impaired cell migration and delayed wound healing”. For the same molecule, the viability at 8 h in “in vitro” is more than 89%. The “IC50 higher in KB-4.0-HTI than in KB-3-1 wild type cells” value in the series with KB-4.0-HTI (ratio of IC50 values of Table 1) amounted to 7 fold. In addition, in the series on OCI-AML2 cells, the cell cycle result was “arrested cells in the G2 phase”. Moreover, in the series with bovine tubulin [2], the “reduction in number of reactive cysteines compared to buffer control” value is given as 5.2±2.6. In addition, in series [3], the “unchanged drug detected in the feces” value is listed as 77%. In series [3], the “unchanged drug detected in the urine” value is “less than 0.1%”. Further, in the series on CEM-VBL (Pgp over-expression), the “sensitivity of CEM-VBL cells compared to wild type controls” value is “fully sensitive”.
